# According to patent publication US20260085062A1, “NOVEL COMPOUNDS AS CK2 INHIBITORS” (Cambridge Enterprise Limited, priority 2022, published 2026):
# pIC50: −log10 of the molar value.
# Experiments:
# [1] = target: T1, intracellular CK2α (Homo sapiens, UniProt P19784); assay: Cell-based NanoBRET assay for inhibitor binding to intracellular CK2α; settings: HCT116 cells transiently transfected with CSNK2A2-NanoLuc fusion vector; Tracer K-5; 2 h; read-out: Assay 3: NanoBRET ™ assay for binding to intracellular CK2α
# T1 construct: host or cells: HCT116 (ATCC CCL-247)
# Procedure, shortened: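 Living cells expressing NanoLuc-CK2α fusion were given a fixed tracer concentration, and compounds competitively displaced the reversibly bound tracer. Donor (450 nm) and acceptor (610 or 630 nm) emissions were read; BRET ratio = (acceptor/donor)×1,000, giving apparent intracellular affinity.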
# [2] = target: T2, CK2α (Homo sapiens, UniProt P68400); assay: Biochemical assay for inhibitors of CK2α kinase activity (ADP-Glo); settings: 0.2 nM CK2α, 50 μM peptide substrate, 15 μM ATP, read-out: Assay 1: CK2α Enzyme IC50
# T2 construct: CK2α (residues 2-329) was produced in Escherichia coli BL21 (DE3) for kinase activity screening; His6 (N, cleaved yes); made in house; host or cells: Escherichia coli BL21 (DE3)
# T2 sequence (P68400 2-329): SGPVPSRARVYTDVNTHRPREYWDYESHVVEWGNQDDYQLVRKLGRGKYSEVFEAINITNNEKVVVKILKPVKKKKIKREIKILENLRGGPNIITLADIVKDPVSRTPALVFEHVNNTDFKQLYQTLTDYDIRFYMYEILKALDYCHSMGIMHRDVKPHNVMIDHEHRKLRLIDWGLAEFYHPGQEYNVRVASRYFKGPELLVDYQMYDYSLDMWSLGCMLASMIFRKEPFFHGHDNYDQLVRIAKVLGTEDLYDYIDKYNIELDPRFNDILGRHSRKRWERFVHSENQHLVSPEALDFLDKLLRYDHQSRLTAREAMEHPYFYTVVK
# [3] = target: T3, CLK2 (Homo sapiens, UniProt P49760); assay: Biochemical assay for inhibitors of CLK2 kinase activity (ADP-Glo); settings: 20 nM CLK2, 50 μM peptide substrate, 100 μM ATP, read-out: Assay 2: CLK2 Enzyme IC50
# T3 construct: purchased Carna Biosciences 04-127
# T3 sequence (P49760 whole entry): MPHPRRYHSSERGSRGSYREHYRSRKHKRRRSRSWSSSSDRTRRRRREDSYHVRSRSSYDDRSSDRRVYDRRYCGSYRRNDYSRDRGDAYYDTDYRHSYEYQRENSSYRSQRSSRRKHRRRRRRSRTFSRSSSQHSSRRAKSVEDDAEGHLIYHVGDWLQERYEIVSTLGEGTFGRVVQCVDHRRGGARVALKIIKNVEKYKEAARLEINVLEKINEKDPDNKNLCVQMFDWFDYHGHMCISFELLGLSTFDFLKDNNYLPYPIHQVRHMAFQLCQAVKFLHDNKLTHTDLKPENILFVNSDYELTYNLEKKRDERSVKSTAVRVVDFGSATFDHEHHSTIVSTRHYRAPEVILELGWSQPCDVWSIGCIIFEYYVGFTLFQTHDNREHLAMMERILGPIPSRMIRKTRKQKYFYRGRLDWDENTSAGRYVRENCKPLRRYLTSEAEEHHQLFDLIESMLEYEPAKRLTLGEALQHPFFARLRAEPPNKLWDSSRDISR
# T1 sequence (P19784 whole entry, the tested form may be a part): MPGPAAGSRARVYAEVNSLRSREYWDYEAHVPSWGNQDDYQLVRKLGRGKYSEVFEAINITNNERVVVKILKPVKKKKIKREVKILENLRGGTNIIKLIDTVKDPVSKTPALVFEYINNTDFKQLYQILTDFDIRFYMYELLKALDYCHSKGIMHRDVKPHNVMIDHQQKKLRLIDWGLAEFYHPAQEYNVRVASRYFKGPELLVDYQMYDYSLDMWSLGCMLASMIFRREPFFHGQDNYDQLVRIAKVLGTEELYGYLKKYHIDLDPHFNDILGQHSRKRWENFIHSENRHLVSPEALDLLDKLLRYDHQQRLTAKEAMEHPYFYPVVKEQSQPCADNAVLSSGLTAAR
pIC50 [1],pIC50 [2],pIC50 [3],Compound
5.53,7.42,6.23,OCc1cc(CNC2CC(COCCOc3cc(-c4cnnc(O)c4)cc4[nH]ncc34)C2)cc(OC(F)(F)F)c1 (stereo not drawn) [Example 200]
5.96,7.72,6.66,"N#Cc1cc(NCCCNC(=O)CCNCc2ccc(OC(F)(F)F)c(Cl)c2)c2cn[nH]c2c1 [Example 160, 3-((3-chloro-4-(trifluoromethoxy)benzyl)amino)-N-(3-((6-cyano-1H-indazol-4-yl)amino)propyl)propanamide]"
7.06,8.92,6.45,"C[C@@H](CCCOCCNc1cc(-c2cnnc(O)c2)cc2[nH]ncc12)NCc1cc(CO)cc(OC(F)(F)F)c1 [Example 193, (S)-5-(4-((2-((4-((3-(hydroxymethyl)-5-(trifluoromethoxy)benzyl)amino)pentyl)oxy)ethyl)amino)-1H-indazol-6-yl)pyridazin-3-ol]"
4.81,6.75,6.00,"O=C(CCNCCCNCc1ccc(OC(F)(F)F)c(Cl)c1)Nc1cc(-n2cnnc2)cc2[nH]ncc12 [Example 66, N-(6-(4H-1,2,4-triazol-4-yl)-1H-indazol-4-yl)-3-((3-((3-chloro-4-(trifluoromethoxy)benzyl)amino)propyl)amino)propanamide]"
7.83,9.12,6.71,"C[C@@H](CCCOCCNc1cc(-c2cnnc(O)c2)cc2[nH]ncc12)NCc1cc(CC#N)cc(OC(F)(F)F)c1 [Example 194, (S)-2-(3-(((5-(2-((6-(6-hydroxypyridazin-4-yl)-1H-indazol-4-yl)amino)ethoxy)pentan-2-yl)amino)methyl)-5-(trifluoromethoxy)phenyl)acetonitrile]"
5.49,7.07,6.85,"OCc1cc(CNCCCCOC2CN(c3cc(-c4cnoc4)cc4[nH]ncc34)C2)cc(C(F)(F)F)c1 [Example 120, (3-(((4-((1-(6-(isoxazol-4-yl)-1H-indazol-4-yl)azetidin-3-yl)oxy)butyl)amino)methyl)-5-(trifluoromethyl)phenyl)methanol]"
7.15,9.27,6.97,"O=C(CCNCc1ccc(-c2ccccc2)c(Cl)c1)NCCCNc1cc(-c2cnoc2)cc2[nH]ncc12 [Example 28, 3-(((2-chloro-[1,1′-biphenyl]-4-yl)methyl)amino)-N-(3-((6-(isoxazol-4-yl)-1H-indazol-4-yl)amino)propyl)propanamide]"
6.09,8.13,6.16,"O=C(CCNCc1ccc(-c2ccccc2)c(Cl)c1)NCCCNc1cc(C2COC2)cc2[nH]ncc12 [Example 81, 3-(((2-chloro-[1,1′-biphenyl]-4-yl)methyl)amino)-N-(3-((6-(oxetan-3-yl)-1H-indazol-4-yl)amino)propyl)propanamide]"
7.12,9.05,6.39,"O=C(CCNCc1ccc(-c2ccccc2)c(Cl)c1)NCCCNc1cc(-c2ccncn2)cc2[nH]ncc12 [Example 75, 3-(((2-chloro-[1,1′-biphenyl]-4-yl)methyl)amino)-N-(3-((6-(pyrimidin-4-yl)-1H-indazol-4-yl)amino)propyl)propanamide]"
5.55,7.99,5.69,"FC(F)(F)c1ccc2[nH]c(CNCCCCOC3CN(c4cc(-c5ccnnc5)cc5[nH]ncc45)C3)cc2c1 [Example 140, 4-((1-(6-(pyridazin-4-yl)-1H-indazol-4-yl)azetidin-3-yl)oxy)-N-((5-(trifluoromethyl)-1H-indol-2-yl)methyl)butan-1-amine]"
7.75,9.33,7.12,"O=C(CCNCc1ccc(OC(F)(F)F)c(Cl)c1)NCCCNc1cc(-c2cnns2)cc2[nH]ncc12 [Example 32, N-(3-((6-(1,2,3-thiadiazol-5-yl)-1H-indazol-4-yl)amino)propyl)-3-((3-chloro-4-(trifluoromethoxy)benzyl)amino)propanamide]"
6.08,7.53,6.97,"N#CCc1cc(Cl)cc(CNCCCCOC2CN(c3cc(-c4cnoc4)cc4[nH]ncc34)C2)c1 [Example 122, 2-(3-chloro-5-(((4-((1-(6-(isoxazol-4-yl)-1H-indazol-4-yl)azetidin-3-yl)oxy)butyl)amino)methyl)phenyl)acetonitrile]"
5.30,8.50,6.24,"O=C(CCNCc1ccc(OC(F)(F)F)c(Cl)c1)NCCCOc1cc(-n2cnnc2)cc2[nH]ncc12 [Example 19, N-(3-((6-(4H-1,2,4-triazol-4-yl)-1H-indazol-4-yl)oxy)propyl)-3-((3-chloro-4-(trifluoromethoxy)benzyl)amino)propanamide]"
4.57,7.38,6.43,"Cc1cc(CC#N)cc(CNCCCCOC2CN(c3cc(-n4cnnc4)cc4[nH]ncc34)C2)c1 [Example 106, 2-(3-(((4-((1-(6-(4H-12,4-triazol-4-yl)-1H-indazol-4-yl)azetidin-3-yl)oxy)butyl)amino)methyl)-5-methylphenyl)acetonitrile]"
6.41,8.18,5.50,"FC(F)(F)c1ccc2[nH]c(CNCCCCOCCOc3cc(-c4ccnnc4)cc4[nH]ncc34)cc2c1 [Example 56, 4-(2-((6-(pyridazin-4-yl)-1H-indazol-4-yl)oxy)ethoxy)-N-((5-(trifluoromethyl)-1H-indol-2-yl)methyl)butan-1-amine]"
5.67,7.63,5.73,"O=C(CCNCc1ccc(-c2ccccc2)c(Cl)c1)NCCCNc1cc(C2CCOC2)cc2[nH]ncc12 (stereo not drawn) [Example 82, 3-(((2-chloro-[1,1′-biphenyl]-4-yl)methyl)amino)-N-(3-((6-(tetrahydrofuran-3-yl)-1H-indazol-4-yl)amino)propyl)propanamide]"
< 4.30,6.61,< 4.30,"FC(F)(F)c1ccc2[nH]c(CNCCCCOCCOc3cc(-n4cnnc4)cc4[nH]nnc34)cc2c1 [Example 116, 4-(2-((6-(4H-1,2,4-triazol-4-yl)-1H-benzo[d][1,2,3]triazol-4-yl)oxy)ethoxy)-N-((5-(trifluoromethyl)-1H-indol-2-yl)methyl)butan-1-amine]"

Compound,pIC50 [1],pIC50 [2],pIC50 [3]
"c1cc2[nH]c(CNCCCCOC3CN(c4cc(-c5cnoc5)cc5[nH]ncc45)C3)cc2cc1OC1CCC1 [Example 119, N-((5-cyclobutoxy-1H-indol-2-yl)methyl)-4-((1-(6-(isoxazol-4-yl)-1H-indazol-4-yl)azetidin-3-yl)oxy)butan-1-amine]",5.79,7.64,6.21
"Fc1cc(CNCCCCOCCNc2c(Cl)c(-n3cnnc3)cc3[nH]ncc23)cc(F)c1OC(F)(F)F [Example 186, 5-chloro-N-(2-(4-((3,5-difluoro-4-(trifluoromethoxy)benzyl)amino)butoxy)ethyl)-6-(4H-1,2,4-triazol-4-yl)-1H-indazol-4-amine]",< 4.31,6.14,5.32
"Clc1ccc2cc(CNCCCCOCCNc3cc(-n4cnnc4)cc4[nH]ncc34)[nH]c2c1 [Example 52, N-(2-(4-(((6-chloro-1H-indol-2-yl)methyl)amino)butoxy)ethyl)-6-(4H-1,2,4-triazol-4-yl)-1H-indazol-4-amine]",6.53,8.84,7.42
"c1cc(-c2cc(OCCOCCCCNCc3cc4cc(OC5CCC5)ccc4[nH]3)c3cn[nH]c3c2)cnn1 [Example 55, N-((5-cyclobutoxy-1H-indol-2-yl)methyl)-4-(2-((6-(pyridazin-4-yl)-1H-indazol-4-yl)oxy)ethoxy)butan-1-amine]",6.83,8.90,5.32
"O=C(O)CCc1cc(NCCOCCCCNCc2cc(F)c(OC(F)(F)F)c(F)c2)c2cn[nH]c2c1 [Example 201, 3-(4-((2-(4-((3,5-difluoro-4-(trifluoromethoxy)benzyl)amino)butoxy)ethyl)amino)-1H-indazol-6-yl)propanoic acid]",6.85,9.06,5.11
